Experimental data as given in paper PMC7663809, “Dual-Inhibitors of N-Myc and AURKA as Potential Therapy for Neuroendocrine Prostate Cancer” (International Journal of Molecular Sciences, 2020).

Assays:
LNCaP cells = experiment: Cell viability assay, LNCaP; format: cell-based, human; conditions: for Inhibitory activity in LNCaP: 1 μM; for Inhibitory activity in LNCaP / viability at 5 µM / viability at 10 µM / IC50: 72 h; for viability at 5 µM / viability at 10 µM / IC50: Homo sapiens, LNCaP; for viability at 5 µM / viability at 10 µM: read-out: % activation (cell viability) in LNCaP; for IC50 / Growth inhibition of LNCaP cells: serial dilution; for IC50: read-out: IC50, growth inhibition of LNCaP cells; for Growth inhibition of LNCaP cells: up to 10 µM
Method: LNCaP were plated at 5000 cells per well in RPMI 1640 containing 5% CSS in a 96-well plate, treated with test compounds (0–25 μM) for 72 h. Cell density was measured using the PrestoBlue assay according to the manufacturer’s protocol. The percentage of cell survival was normalized to the cell density of control wells treated by vehicle. […]

NCI-H660 cells = experiment: Cell viability assay, NCI-H660; format: cell-based; conditions: 72 h; for Inhibitory activity in NCI-H660: 1 μM; for viability at 5 µM / viability at 10 µM: NCI-H660, read-out: % activation (cell viability) in NCI-H660
Method: (§1) NCI-H660 cells were purchased from the American Type Culture Collection (ATCC) and grown in RPMI medium supplemented with 5% fetal bovine serum (FBS), 1% Isulin-Transferrin-Selenium (Thermo Fisher, 41400-045, Waltham, MA, USA), 10 nM b-estradiol (Sigma, E8875; Darmstadt, Germany), 10 nM hydrocortisone (Sigma H0888), and 1% matrigel. HO15.19 cells were a generous gift from John Sidivy at Brown University and were cultured in Dulbecco’s modified Eagle’s medium (DMEM) (ATCC 30–2002) supplemented with 10% FBS. LNCaP-N-Myc and 22rv1-N-Myc cells were a generous gift from David Rickman at Weill Cornell Medicine (New York, NY, USA) and were cultured in RPMI supplemented with 10% FBS.
(§2) Viability of N-Myc -overexpressing LNCaP and 22Rv1 was done with 5000 cells per well in RPMI supplemented with 10% FBS and read with Cell Titer Glo (Promega, cat# G7572; Madison, WI, USA) according to the manufacturer’s protocol. Eagle’s minimum essential medium (EMEM) supplemented with 10% FBS was used for the Myc-negative HO15.19 cells at 2000 cells per well and 20,000 neuroendocrine NCI-H660 cells were plated in RPMI supplemented with 5% FBS, 1% Isulin-Transferrin-Selenium (Thermo Fisher, 41400-045), 10 nM b-estradiol (Sigma, E8875), 10 nM hydrocortisone (Sigma H0888), and 1% matrigel. All cells were incubated for 72 h with the compounds.

22Rv1 cells = experiment: Cell viability assay, 22Rv1; format: cell-based, human; conditions: for Inhibitory activity in 22Rv1: 1 μM; for Inhibitory activity in 22Rv1 / viability at 5 µM / viability at 10 µM / IC50: 72 h; for viability at 5 µM / viability at 10 µM / IC50: Homo sapiens, 22Rv1; for viability at 5 µM / viability at 10 µM: read-out: % activation (cell viability) in 22Rv1; for IC50 / Growth inhibition of 22Rv1 cells: serial dilution; for IC50: read-out: IC50, growth inhibition of 22Rv1 cells; for Growth inhibition of 22Rv1 cells: up to 10 µM
Method: as §1, §2

HO15.19 cells = experiment: Growth / viability in Myc negative cell line HO15.19; format: cell-based
Method: as §1
as §2, with “All cells were incubated for 72 h with the compounds.” left out

Myc-Max = Myc-Max luciferase transcription inhibition (Cignal Myc reporter) assay in LNCaP cells; format: cell-based; conditions: Homo sapiens, 24 h, 0-25 μM, 1 day
Method: The eGFP Myc transcriptional activity was assayed as previously described. Briefly, cell transfection was performed using TransIT-2020 transfection reagents according to the manufacturer’s instructions. LNCaP cells were plated at 10,000 cells per well and treated for 1 day with the indicated concentration of compound with increasing concentrations (0−25 μM) of compounds for screening and measuring IC50. Myc reporter activity was measured using the Cignal Myc Reporter Assay Kit from Qiagen (#336841; Hilden, Germany) according to the manufacturer’s instructions.

N-Myc-Max DBD = N-Myc-Max DBD (Homo sapiens, UniProt P04198+P61244); experiment: Biolayer interferometry: binding of N-Myc-Max complex to biotinylated E-box DNA; conditions: 100 µM and 200 µM
N-Myc-Max DBD, sequence (P04198 377-464): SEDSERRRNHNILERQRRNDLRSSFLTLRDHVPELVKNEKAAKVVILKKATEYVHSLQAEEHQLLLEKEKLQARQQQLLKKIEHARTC
N-Myc-Max DBD, sequence (P61244 22-102): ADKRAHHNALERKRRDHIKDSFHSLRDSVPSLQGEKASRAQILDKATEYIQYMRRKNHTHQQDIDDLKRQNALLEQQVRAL
Method: The direct interaction between biotinylated E-box oligo immobilized on a streptavidin biosensor and a purified N-Myc-Max complex (0.05 mg/ml) was quantified by BLI using OctetRED (ForteBio). The DNA was first bound to the super-streptavidin sensors. The sensors were next moved into wells containing the reaction buffer (20 mM Tris pH 8, 150 mM NaCl, 5% glycerol, 0.2 mM TCEP, 5% dimethylsulfoxide) for measuring the baseline and next into the N-Myc-Max complex alone or in presence of the tested inhibitors to study the association of the complex to the DNA.

AURKA = biological target: T1, AURKA (Homo sapiens, UniProt O14965); experiment: Aurora A kinase activity assay (ADP-Glo); format: biochemical; conditions: read-out: AURKA enzyme activity remaining
T1 construct: 10 ng Aurora-A catalytic domain
T1 sequence (O14965 133-383 limits assumed): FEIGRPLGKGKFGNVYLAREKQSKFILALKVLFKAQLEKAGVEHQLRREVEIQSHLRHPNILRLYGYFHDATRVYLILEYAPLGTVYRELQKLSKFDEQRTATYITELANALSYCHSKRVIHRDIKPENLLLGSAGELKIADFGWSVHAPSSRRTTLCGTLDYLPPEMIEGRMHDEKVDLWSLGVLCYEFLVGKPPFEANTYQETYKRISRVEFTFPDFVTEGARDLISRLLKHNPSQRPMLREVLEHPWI
Method: AURKA kinase assays were performed using the ADP-Glo Kinase assay (Promega) according to the manufacturer protocol. Measurement of Aurora-A activity was carried out using reactions containing (per well):10 ng Aurora-A catalytic domain, 50 uM ATP, and 0.5 myelin basic protein (MBP), in 5% dimethyl sulfoxide (DMSO). Reactions were incubated at room temperature for 60 min, and luminescence data (integration time: 0.5–1 s) was recorded on a Tecan M200 Pro reader (Männedorf, Switzerland).

`N#Cc1ccc(NNC(=O)c2ccc(C(F)(F)F)cc2)c(C(F)(F)F)c1` [compound 70551, N′-[4-cyano-2-(trifluoromethyl)phenyl]-4-(trifluoromethyl)benzohydrazide] was tested. Which “Inhibitory activity in LNCaP” value (LNCaP cells) did it give?
The value was “no significant inhibitory activity”.

And the viability at 5 µM (LNCaP cells)?
Its viability at 5 µM is > 75%.

And the viability at 10 µM (LNCaP cells)?
The viability at 10 µM was 49.7%.

And the IC50 (LNCaP cells)?
Its IC50 is 11.1 µM.

What about the “Inhibitory activity in NCI-H660” value (NCI-H660 cells) of the same compound?
The value was “no significant inhibitory activity”.

And the viability at 5 µM (NCI-H660 cells)?
The viability at 5 µM was > 75%.

And the viability at 10 µM (NCI-H660 cells)?
The viability at 10 µM was 49.2%.

And the “Inhibitory activity in 22Rv1” value (22Rv1 cells)?
Its value is “no significant inhibitory activity”.

What about the viability at 5 µM (22Rv1 cells) of the same compound?
The viability at 5 µM was > 75%.

And the viability at 10 µM (22Rv1 cells)?
The viability at 10 µM was 78.8%.

And the IC50 (22Rv1 cells)?
Its IC50 is 15.6 µM.

What about the “Toxicity in HO15.19” value (HO15.19 cells; 20 μM, 120 h) of the same compound?
Its value is “slight toxicity”.

What about the “Effect on HO15.19 growth” value (HO15.19 cells; N-Myc null cell line, 120 h, below 20 μM) of the same compound?
Its value is “minimal effect”.

What about the IC50 (Myc-Max) of the same compound?
Its IC50 is 4 µM.

And the “Disruption of DNA binding to N-Myc-Max DBD (BLI)” value (N-Myc-Max DBD)?
The value was “weak disruption”.

With `N#Cc1ccc(NNC(=O)c2ccc(Nc3nccc(Nc4cc(C5CCCC5)n[nH]4)n3)cc2)c(C(F)(F)F)c1` [compound 70812] as the compound, how does the “Inhibitory activity in LNCaP” value (LNCaP cells) read?
Its value is “No discernable inhibitory activity”.

And the viability at 5 µM (LNCaP cells)?
Its viability at 5 µM is 32.5%.

What about the viability at 10 µM (LNCaP cells) of the same compound?
The viability at 10 µM was 1.4%.

What about the IC50 (LNCaP cells) of the same compound?
The IC50 was 3.05 µM.

What about the “Inhibitory activity in NCI-H660” value (NCI-H660 cells) of the same compound?
The value was “No discernable inhibitory activity”.

What about the viability at 5 µM (NCI-H660 cells) of the same compound?
Its viability at 5 µM is 82.9%.

What about the viability at 10 µM (NCI-H660 cells) of the same compound?
The viability at 10 µM was 52.1%.

And the “Inhibitory activity in 22Rv1” value (22Rv1 cells)?
The value was “No discernable inhibitory activity”.

What about the viability at 5 µM (22Rv1 cells) of the same compound?
Its viability at 5 µM is 66.5%.

And the viability at 10 µM (22Rv1 cells)?
The viability at 10 µM was 16.6%.

And the IC50 (22Rv1 cells)?
Its IC50 is 3.71 µM.

And the remaining activity at 5 µM (AURKA; 5 µM compound)?
The remaining activity at 5 µM was 21.1%.

And the remaining activity at 10 µM (AURKA; 10 µM compound)?
Its remaining activity at 10 µM is 19.9%.

And the remaining activity at 15 µM (AURKA; 15 µM compound)?
Its remaining activity at 15 µM is 18.7%.

And the remaining activity at 30 µM (AURKA; 30 µM compound)?
The remaining activity at 30 µM was 21.4%.

And the IC50 (Myc-Max)?
The IC50 was 2 µM.

What about the “Disruption of DNA binding to N-Myc-Max DBD (BLI)” value (N-Myc-Max DBD) of the same compound?
Its value is “effectively disrupt”.

How did the “Growth inhibition of LNCaP cells” value (LNCaP cells) turn out when `CCc1ccc(/C=C2/SC(=S)NC2=O)cc1` [10058-F4, reference compound] was run?
The value was “ineffective”.

What about the “Growth inhibition of 22Rv1 cells” value (22Rv1 cells) of the same compound?
Its value is “ineffective”.

Which results are given for `O=[N+]([O-])c1ccc(Nc2ccccc2-c2ccccc2)c2nonc12` [10074-G5, reference compound]?
Growth inhibition of LNCaP cells (LNCaP cells): ineffective; Growth inhibition of 22Rv1 cells (22Rv1 cells): ineffective

With `O=C(Nc1ccc(Nc2nccc(Nc3cc(C4CCCC4)[nH]n3)n2)cc1)Nc1cccc(C(F)(F)F)c1` [CD532, reference compound] as the compound, how does the “Cytotoxicity in N-Myc negative cell line HO15.19” value (HO15.19 cells; 10, 5 and 1 µM, 72 h) read?
The value was “cytotoxicity”.
